Test results as given in patent US20200163938A1, “PHARMACEUTICAL COMPOSITION COMPRISING IRON CHELATOR EXHIBITING ANTITUMOR ACTIVITY, ANTIBACTERIAL ACTIVITY AND/OR ANTIVIRUS ACTIVITY, AND HAVING REDUCED SIDE EFFECTS” (priority 2017, published 2020).
Values after ≈ are worked out from the molar mass of the structure shown. Values joined by “and” are separate entries in the source; they are usually repeats but may differ in a detail not shown here. Equal entries are not always repeated. Where two headings read alike, the source gives them in different places.

Legend:
[1] = system: C. albicans (ATCC10231; Candida albicans); experiment: Minimum growth inhibition concentration (MIC); type: cell-based
Procedure: (§1) The dilution series of the chelating agent of each test group was prepared according to a standard method, microbes were inoculated, and then 24 hours later, the microbial growth was confirmed, thereby determining the minimum growth inhibition concentration of the chelating agent of each test group. Microbes used herein were S. aureus (ATCC6538; Staphylococcus aureus), P. aeruginosa (ATCC9027; Pseudomonas aeruginosa) and C. albicans (ATCC10231; Candida albicans). Drugs used herein were oxacillin, vancomycin and deferasirox as positive controls.

[2] = system: P. aeruginosa (ATCC9027; Pseudomonas aeruginosa); experiment: Minimum growth inhibition concentration (MIC); type: cell-based; details: 24 hours; for MIC: Pseudomonas aeruginosa, ATCC9027
Procedure: as §1

[3] = system: S. aureus (ATCC6538; Staphylococcus aureus); experiment: Minimum growth inhibition concentration (MIC); type: cell-based; details: for MIC S. aureus / MIC: 24 hours; for MIC: Staphylococcus aureus, ATCC6538
Procedure: as §1

S. mutans (ATCC25175) = experiment: Antibacterial activity, turbidity and ATP assay; type: cell-based, Streptococcus mutans; details: aerobic culture 37° C., 18 hours; FIGS. 6A, 6B
Procedure: First, the antibacterial activity of a dental caries-causing bacterium, S. mutans (ATCC25175) was examined. With the use of a liquid medium prepared by adding a yeast extract and the chelating agent of each test group to TSB medium, aerobic culture was performed at 37° C. for 18 hours, and then turbidity was found from optical density (OD570 or 595 nm). Cell activity was measured using an ATP assay kit (Kikkoman Corporation). Results were as depicted in FIGS. 6A and 6B.

[4] = system: A. actinomycetemcomitans AaY4 (ATCC); experiment: Antibacterial activity, turbidity and ATP assay; type: cell-based, Aggregatibacter actinomycetemcomitans; details: anaerobic culture 37° C., 18 hours; FIGS. 7A, 7B
Procedure: A bacterial strain of one of periodontopathic bacteria, A. actinomycetemcomitans, used herein was AaY4 (ATCC). With the use of a liquid medium prepared by adding a yeast extract, sodium bicarbonate and the chelating agent of each test group to TSB medium, anaerobic culture (Anaeropack-anaerobic) was performed at 37° C. for 18 hours. Turbidity was measured using absorbance (OD570 or 595 nm), and cell activity was measured using an ATP assay kit. Results were as depicted in FIGS. 7A and 7B.

[5] = system: Human lung cancer cell line (A549) subcutaneous tumors; experiment: In vivo antitumor effects, A549 subcutaneous tumors in nude mice
Procedure: Antitumor effects were confirmed using animal models. Specifically, nude mice (BALB/c nu/nu, 6 weeks old: Clea Japan Inc.) were provided. Human lung cancer cell line (A549) was adjusted at 3×10^6/mouse, and then mixed with Matrigel (BD Biosciences) at 1:1. The thus obtained mixture was administered to mice, thereby forming subcutaneous tumors. At 1 week after the formation of subcutaneous tumors, mice were divided into a negative control group (saline: 4 mice), a test group 9 administration group (test group 9: 3 mice), and a positive control group (deferasirox: 3 mice), and then subjected to oral administration. The dosage of deferasirox was 20 mg/kg/day (5 times/week administration) corresponding to that specified for humans in the package insert. Test group 9 was administered in the same dosage as that of deferasirox. Results were as depicted in FIGS. 4A and 4B.

[6] = type: in vivo; parameters: NEFA: unit not given here; details: for Body weight: rats
Procedure: To a negative control group (saline administration; n=6), the same amount of saline was administered. On day 14 after administration, determining life or death, measurement of body weight, physical items (respiration, body temperature, behavior, etc.) were observed. Moreover, blood samples were taken from each group, and the right kidneys and the livers were removed. Results were as depicted in FIG. 5A to 5C and Tables 4 to 9.

[7] = rat blood, oral 200 mg/kg, day 14
[8] = rat blood, oral 1000 mg/kg, day 14
[9] = rat blood, oral 1000 mg/kg, day 14, 1000 mg/kg

**Q.** Which “MIC C. albicans” value ([1]; 24 hours) does the source give for `Cl.O=C(O)c1cc(CNC2C(O)OC(CO)C(O)C2O)ccc1O` (centres unmarked) [Test group 7] here?
**A.** >800 µg/mL

**Q.** What about the “MIC P. aeruginosa” value [2] of the same compound?
**A.** >800 µg/mL

**Q.** And the “MIC S. aureus” value [3]?
**A.** >800 µg/mL

**Q.** For `Cc1onc(-c2ccccc2)c1C(=O)N[C@@H]1C(=O)N2[C@@H]1SC(C)(C)[C@@H]2C(=O)O` [Oxacillin, oxacillin, reference compound], which MIC [2] is on record?
**A.** 1020 µg/mL (≈ 2550 µM)

**Q.** And the MIC [3]?
**A.** 0.25 µg/mL (≈ 0.623 µM)

**Q.** With `O=C(O)c1ccc(-n2nc(-c3ccccc3O)nc2-c2ccccc2O)cc1` [Deferasirox, deferasirox, reference compound] as the compound, how does the MIC ([1]; Candida albicans, ATCC10231, 24 hours) read?
**A.** > 250 µg/mL

**Q.** And the MIC [2]?
**A.** > 250 µg/mL

**Q.** What about the MIC [3] of the same compound?
**A.** 250 µg/mL (≈ 670 µM)

**Q.** What does the source list for `Cl.OCC1OC(O)C(NCc2ccc(O)c(O)c2)C(O)C1O` (centres unmarked) [Test group 5]?
**A.** MIC C. albicans ([1]; 24 hours): 800 µg/mL; antimicrobial effects on C. albicans (in words) ([1]; from Table 10): exhibited antimicrobial effects; MIC P. aeruginosa [2]: >800 µg/mL; MIC S. aureus [3]: 800 µg/mL; antimicrobial effects on S. mutans (turbidity, ATP activity) (S. mutans (ATCC25175)): strong antimicrobial effects; antimicrobial effects on A. actinomycetemcomitans (turbidity, ATP activity) [4]: strong antimicrobial effects

**Q.** Which results are given for `Cl.O=C(O)c1cc(CN[C@@H](Cc2c[nH]cn2)C(=O)O)ccc1O` [Test group 9]?
**A.** in vivo antitumor effects ([5]; A549 subcutaneous tumors, nude mice, oral 20 mg/kg/day (5 times/week), FIG. 4A): antitumor effects were exhibited to an extent almost equivalent to that in the positive control group; body weight change ([5]; mouse, in vivo, po, 20 mg/kg/day): no significant change was observed in body weight; death during the experiment ([5]; nude mice, oral 20 mg/kg/day (5 times/week)): no mice died during the experiment; ALP [6, 7]: 695 IU/L; ALT [6, 7]: 24 IU/L; AST [6, 7]: 54 IU/L; BUN [6, 7]: 22.8 mg/dL; CRE [6, 7]: 0.37 mg/dL; Ca [6, 7]: 11.1 mg/dL; GLU [6, 7]: 214 mg/dL; K [6, 7]: 4.7 mEQ/L; LD [6, 7]: 49 IU/L; NEFA [6, 7]: 59; Na [6, 7]: 146 mEQ/L; T-Bil [6, 7]: 0.05 mg/dL; TP [6, 7]: 5.5 g/dL; CRE [6, 8]: 0.36 mg/dL; T-Bil [6, 8]: 0.06 mg/dL; ALP [6, 9]: 563 IU/L and 502 IU/L; ALT [6, 9]: 24 IU/L and 25 IU/L; AST [6, 9]: 59 IU/L and 58 IU/L; BUN [6, 9]: 22.5 mg/dL and 24.4 mg/dL; Ca [6, 9]: 10.0 mg/dL and 11.2 mg/dL; GLU [6, 9]: 195 mg/dL and 301 mg/dL; K [6, 9]: 3.6 mEQ/L and 4.8 mEQ/L; LD [6, 9]: 78 IU/L and 70 IU/L; Na [6, 9]: 143 mEQ/L and 144 mEQ/L; TP [6, 9]: 5.4 g/dL and 5.9 g/dL; Body weight ([6]; oral 200 mg/kg): 190.97 g; Body weight ([6]; oral 1000 mg/kg, 1000 mg/kg): 177.11 g and 183.15 g; MIC C. albicans ([1]; 24 hours): >500 µg/mL; MIC P. aeruginosa [2]: >500 µg/mL; MIC S. aureus [3]: >500 µg/mL

**Q.** Which MIC [2] does the source give for `CN[C@H](CC(C)C)C(=O)N[C@H]1C(=O)N[C@@H](CC(N)=O)C(=O)N[C@H]2C(=O)N[C@H]3C(=O)N[C@H](C(=O)N[C@H](C(=O)O)c4cc(O)cc(O)c4-c4cc3ccc4O)[C@H](O)c3ccc(c(Cl)c3)Oc3cc2cc(c3O[C@@H]2O[C@H](CO)[C@@H](O)[C@H](O)[C@H]2O[C@H]2C[C@](C)(N)[C@H](O)[C@H](C)O2)Oc2ccc(cc2Cl)[C@H]1O` [Vancomycin, vancomycin, reference compound] here?
**A.** > 50 µg/mL

**Q.** And the MIC [3]?
**A.** 1.6 µg/mL (≈ 1.1 µM)

**Q.** With `Cl.O=C(O)[C@H](Cc1c[nH]cn1)NCc1ccc(O)c(O)c1` [Test group 8] as the compound, how does the “MIC C. albicans” value ([1]; 24 hours) read?
**A.** >800 µg/mL

**Q.** And the “MIC P. aeruginosa” value [2]?
**A.** >800 µg/mL

**Q.** And the “MIC S. aureus” value [3]?
**A.** 800 µg/mL

**Q.** And the “antimicrobial effects on S. aureus (in words)” value ([3]; from Table 10)?
**A.** antimicrobial effects
